In brackets after ≈: the same amount, converted by molar mass. Where two headings read alike, the source gives them in different places.
Key:
[1] = test system: IFNβ production in THP-1 cells; test: IFNβ ELISA in THP-1 cells; type: cell-based, human; conditions: for IC50: Homo sapiens, THP-1 cells
Summary of the method: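 THP-1 cells stimulated with dsDNA or cGAMP (STING activation bypassing cGAS) in the presence of compound; IFNβ secreted into medium quantified by ELISA. IC50 values reported in potency bins.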

[2] = Metabolic stability in mouse hepatocytes; type: in vitro ADME; conditions: read-out: Mouse MS Stability t1/2
Protocol: (§1) ADME studies: Compound A and the compounds of the disclosure were tested for aqueous solubility (KSOL), metabolic stability (human and mouse […]) and permeability (Caco-2 and/or MDR1-MDCK cells) to provide an initial indication of oral bioavailability.
(§2) The favorable physicochemical properties are reflected in promising results in in vitro ADME tests. […] Metabolic stability, which was routinely measured with mouse and human hepatocytes, is outstanding, with t, greater than 2 hours for all of the compounds of the disclosure in which it has been measured. Cell permeability was measured using MDCK cells expressing human MDR1 (P-glycoprotein) to assess passive permeability as well as active transport out of the cell. […] Numerous compounds in Table 1 meet these permeability criteria, which is consistent with their design for TPSA <140 Å^2 and increased lipophilicity.
(§3) The MDCK-MDR1 permeability A ->B is shown in Table 2 below, where A represents 5-10 cm/s×10^−6; B represents 1-5 cm/s×10^−6; and C represents <1 cm/ss×10^−6. The metabolic stability half time, in both mouse and human hepatocytes, is also shown in Table 2 below, where A′ represents 100-200 minutes; B′ represents 200-300 minutes; and C′ represents >300 minutes.

[3] = target: cGAS (Homo sapiens, UniProt Q8N884); test: Transcreener cGAS enzymatic assay (FP); type: biochemical
Sequence of cGAS (Q8N884 whole entry): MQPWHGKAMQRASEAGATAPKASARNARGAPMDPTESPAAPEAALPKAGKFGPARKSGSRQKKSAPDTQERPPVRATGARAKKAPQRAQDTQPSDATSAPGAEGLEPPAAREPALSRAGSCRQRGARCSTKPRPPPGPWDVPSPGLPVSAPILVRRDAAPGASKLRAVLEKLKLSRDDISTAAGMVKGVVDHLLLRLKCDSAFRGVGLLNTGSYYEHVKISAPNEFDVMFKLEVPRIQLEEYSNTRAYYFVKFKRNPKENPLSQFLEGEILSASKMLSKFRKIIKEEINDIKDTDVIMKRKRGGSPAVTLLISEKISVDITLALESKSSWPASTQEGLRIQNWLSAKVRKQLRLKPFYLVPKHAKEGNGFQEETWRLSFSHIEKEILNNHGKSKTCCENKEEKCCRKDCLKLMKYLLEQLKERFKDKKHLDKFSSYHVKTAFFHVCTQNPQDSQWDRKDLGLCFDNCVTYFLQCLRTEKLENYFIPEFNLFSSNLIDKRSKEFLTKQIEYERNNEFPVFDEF
Summary of the method: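 Human cGAS (30 nm) inhibition, 60 min reactions, FP read-out, standard conditions 100 μM ATP and GTP plus 62.5 nM bp ISD. Also run at 1 mM ATP and GTP (physiological), with 200 μM MnCl2, and with mouse cGAS under standard conditions; IC50 reported.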

[4] = test system: MDCK cells expressing human MDR1 (P-glycoprotein); test: MDCK-MDR1 permeability A→B; type: in vitro ADME, Canine
Summary of the method: (§4)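 Permeability measured apical-to-basolateral in MDCK cells expressing human MDR1, reported as binned ranges in cm/s×10^−6. Metabolic stability determined as half-life in mouse and human hepatocytes, reported as binned ranges in minutes.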

[5] = Metabolic stability in human hepatocytes; type: in vitro ADME; conditions: read-out: Human MS Stability t1/2
Protocol: as §1, §2, §3

[6] = Kinetic aqueous solubility (KSOL) in PBS, pH 7.4; type: physicochemical; conditions: aqueous buffer, kinetic from dmso stock
Protocol: as §1, §2

[7] = test system: IFN-β production in PBMCs; test: IFNβ ELISA in human primary PBMCs; type: cell-based; conditions: PBMC
Excerpt: Cellular assays: The human monocyte cell line THP-1 and human primary PBMCs were used to evaluate the cellular activity of compounds with good biochemical potency. These cells produce a robust cGAS/STING-dependent type I IFN response when stimulated with dsDNA and other pathogen-associated molecular patterns, which was detected using a standard ELISA for IFNβ (R&D Systems). The TBK1 inhibitor, BX-795, which acts downstream of cGAS/STING, was used as a probe.
The ICso values for IFNB ELISA stimulated with THP-1, PBMC, DNA, and cGAMP were determined for several exemplary compounds of the invention, and are provided in Table 3 where A represents <1 μM; B represents 1-2.5 μM; C represents 2.5-10 μM; D represents 10-20 μM; and E represents >20 μM.
The reporter gene assays were used to assess off-target activity with IRF30Luc (RIG-1) or NFKB (TLR4); CellTiter Glo (ATP levels) and Presto Blue (reducing equivalents) were used to assess cytotoxicity; all assays were performed in dose response mode. […] The inventors recently began using human PBMCs to assess cellular potency in a more physiologically relevant context.

[8] = test system: MDR1 (P-glycoprotein); test: MDCK-MDR1 permeability A→B; type: in vitro ADME, Canine; conditions: dog; MDCK cells expressing human MDR1, A→B; read-out: MDCK-MDR Permeability A→B
Summary of the method: as §4

[9] = high ATP and GTP (1 mM) to mimic physiological conditions, read-out: IC50 FP Physiological
[10] = standard conditions: 100 μM ATP and GTP, 62.5 nM bp ISD, 60 minute reactions, read-out: IC50 FP Standard

Row | Compound | IC50 [1] [nM] | half-life [2] [min] | IC50 [3, 9] [nM] | IC50 [3, 10] [nM] | MDCK-MDR Permeability A→B [4] | half-life [5] [min] | solubility kinetic [6] [µM] | IC50 [7] [nM] | Papp A→B [8] [×10⁻⁶ cm/s] | Cellular IC50 relative to biochemical IC50 ([1]; cellular assays vs cGAS enzymatic assay at 1 mM ATP/GTP) | half-life ([2]; given as number) [min]
1 | COc1cc(NC(=O)C[C@H]2C[C@@H](C(=O)O)N(c3nc(C)nc4c3oc3ccccc34)C2)ccn1 [Compound 6, (2S,4R)-4-(2-((2-methoxypyridin-4-yl)amino)-2-oxoethyl)-1-(2-methylbenzofuro[3,2-d]pyrimidin-4-yl)pyrrolidine-2-carboxylic acid] | 2500 to 10000 | > 300 | 1000 to 5000 | 50 to 100 | C (C represents <1 cm/ss×10^−6) | > 300 | 496 (≈ 229 µg/mL) |  |  |  | 
2 | C#Cc1ccc(NC(=O)C[C@H]2C[C@@H](C(=O)O)N(c3nc(C)nc4c3oc3ccccc34)C2)cc1 [Compound 27, (2S,4R)-4-(2-((4-ethynylphenyl)amino)-2-oxoethyl)-1-(2-methylbenzofuro[3,2-d]pyrimidin-4-yl)pyrrolidine-2-carboxylic acid] | 2500 to 10000 | > 300 | 1000 to 5000 | 100 to 200 |  | 100 to 200 | 548 (≈ 249 µg/mL) | 2500 to 10000 | 1 to 5 |  | 
3 | Cc1nc(N2C[C@@H](CC(=O)Nc3ccc4[nH]ncc4c3)C[C@H]2C(=O)O)c2oc3ccccc3c2n1 [Compound 3, (2S,4R)-4-(2-((1H-indazol-5-yl)amino)-2-oxyethyl)-1-(2-methylbenzofuro[3,2-d]pyrimidin-4-yl)pyrrolidine-2-carboxylic acid] | 10000 to 20000 | > 300 | > 5000 | 1000 to 10000 | C (C represents <1 cm/ss×10^−6) |  | 496 (≈ 233 µg/mL) |  |  |  | 
4 | Cc1nc(N2C[C@@H](CC(=O)Nc3ccc4ncccc4c3)C[C@H]2C(=O)O)c2oc3ccccc3c2n1 [Compound 32, (2S,4R)-1-(2-methylbenzofuro[3,2-d]pyrimidin-4-yl)-4-(2-oxo-2-(quinolin-6-ylamino)ethyl)pyrrolidine-2-carboxylic acid] | 2500 to 10000 | 200 to 300 | 1000 to 5000 | 50 to 100 | C (C represents <1 cm/ss×10^−6) | > 300 | 527 (≈ 254 µg/mL) | 10000 to 20000 |  |  | 
5 | Cc1nc(N2C[C@@H](CC(=O)Nc3ccc(-c4cccc5[nH]ncc45)cc3)C[C@H]2C(=O)O)c2oc3ccccc3c2n1 [Compound 46, (2S,4R)-4-(2-((4-(1H-indazol-4-yl)phenyl)amino)-2-oxoethyl)-1-(2-methylbenzofuro[3,2-d]pyrimidin-4-yl)pyrrolidine-2-carboxylic acid] | < 1000 | > 300 | < 200 | < 50 | C (C represents <1 cm/ss×10^−6) | 100 to 200 | 42 (≈ 23 µg/mL) | 1000 to 2500 |  |  | 
6 | Cc1nc(N2C[C@@H](CC(=O)Nc3ccc4ccccc4c3)C[C@H]2C(=O)O)c2oc3ccccc3c2n1 [Compound 31, (2S,4R)-1-(2-methylbenzofuro[3,2-d]pyrimidin-4-yl)-4-(2-(naphthalen-2-ylamino)-2-oxoethyl)pyrrolidine-2-carboxylic acid] | 1000 to 2500 | > 300 | 200 to 500 | 50 to 100 |  | 100 to 200 | 313 (≈ 150 µg/mL) | 1000 to 2500 | 5 to 10 |  | 
7 | Cc1nc(N2C[C@@H](CC(=O)Nc3ccc(Cc4ccccc4)cc3)C[C@H]2C(=O)O)c2oc3ccccc3c2n1 [Compound 54, (28.4R)-4-(2-((4-benzylphenyl)amino)-2-oxoethyl)-1-(2-methylbenzofuro[3,2-d]pyrimidin-4-yl)pyrrolidine-2-carboxylic acid] | 1000 to 2500 | 100 to 200 | 500 to 1000 | 50 to 100 |  | 100 to 200 | 285 (≈ 148 µg/mL) | 2500 to 10000 | 1 to 5 |  | 
8 | Cc1nc(N2C[C@@H](CC(=O)Nc3ccc(Cl)c(Cl)c3)C[C@H]2C(=O)O)c2oc3ccccc3c2n1 [Compound 26, (2S,4R)-4-(2-((3,4-dichlorophenyl)amino)-2-oxoethyl)-1-(2-methylbenzofuro[3,2-d]pyrimidin-4-yl)pyrrolidine-2-carboxylic acid] | 2500 to 10000 | > 300 | 1000 to 5000 | 200 to 1000 |  | > 300 | 80 (≈ 39.9 µg/mL) | 2500 to 10000 | 5 to 10 |  | 
9 | Cc1nc(N2C[C@@H](CC(=O)Nc3ccc4[nH]ccc4c3)C[C@H]2C(=O)O)c2oc3ccccc3c2n1 [Compound 1, (2S,4R)-4-(2-((1H-indol-5-yl)amino)-2-oxyethyl)-1-(2-methylbenzofuro[3,2-d]pyrimidin-4-yl)pyrrolidine-2-carboxylic acid] | 2500 to 10000 | 100 to 200 | 1000 to 5000 | 50 to 100 |  | > 300 | 487 (≈ 229 µg/mL) |  | 1 to 5 |  | 
10 | Cc1nc(N2C[C@@H](CC(=O)N(C)C3CCCC3)C[C@H]2C(=O)O)c2oc3ccccc3c2n1 [Compound 2, (2S,4R)-4-(2-(cyclopentyl(methyl)amino)-2-oxoethyl)-1-(2-methylbenzofuro[3,2-d]pyrimidin-4-yl)pyrrolidine-2-carboxylic acid] | > 20000 | > 300 | 500 to 1000 | 50 to 100 | C (C represents <1 cm/ss×10^−6) | > 300 | 506 (≈ 221 µg/mL) |  |  |  | 
11 | Cc1nc(N2C[C@@H](CC(=O)Nc3ccc(-c4ccccc4)c(C(F)(F)F)c3)C[C@H]2C(=O)O)c2oc3ccccc3c2n1 [Compound 63, (2S,4R)-1-(2-methylbenzofuro[3,2-d]pyrimidin-4-yl)-4-(2-oxo-2-((2-(trifluoromethyl)-[1,1′-biphenyl]-4-yl)amino)ethyl)pyrrolidine-2-carboxylic acid] | < 1000 |  | 200 to 500 | 100 to 200 |  | 100 to 200 | 570 (≈ 327 µg/mL) | 1000 to 2500 | 1 to 5 | essentially identical | > 360
12 | Cc1nc(N2C[C@@H](CC(=O)Nc3ccc(-c4ccc5[nH]ncc5c4)cc3)C[C@H]2C(=O)O)c2oc3ccccc3c2n1 [Compound 38, (2S,4R)-4-(2-((4-(1H-indazol-5-yl)phenyl)amino)-2-oxoethyl)-1-(2-methylbenzofuro[3,2-d]pyrimidin-4-yl)pyrrolidine-2-carboxylic acid] | 1000 to 2500 | > 300 | 200 to 500 | < 50 | C (C represents <1 cm/ss×10^−6) | 100 to 200 | 84 (≈ 45.9 µg/mL) | 2500 to 10000 |  |  | 
13 | Cc1nc(N2C[C@@H](CC(=O)Nc3ccc(-c4cccnc4)cc3)C[C@H]2C(=O)O)c2oc3ccccc3c2n1 [Compound 37, (2S,4R)-1-(2-methylbenzofuro[3,2-d]pyrimidin-4-yl)-4-(2-oxo-2-((4-(pyridin-3-yl)phenyl)amino)ethyl)pyrrolidine-2-carboxylic acid] | 1000 to 2500 | 200 to 300 | < 200 | < 50 | C (C represents <1 cm/ss×10^−6) | > 300 | 547 (≈ 278 µg/mL) | 1000 to 2500 |  |  | 
